Data taken from patent US11098063B2, “Diazabicyclic substituted imidazopyrimidines and their use for the treatment of breathing disorders” (Bayer Aktiengesellschaft, priority 2017, dated 2021).

Experiments:
human TASK-1 = human TASK-1 (Homo sapiens (Human), UniProt O14649); assay: Inhibition of recombinant TASK-1 in stably transfected CHO cells (voltage-sensitive dye, KCl depolarization); type: cell-based; details: depolarization by 40 mM potassium chloride
Protocol: (§1) B-2. Inhibition of Recombinant TASK-1 and TASK-3 In Vitro
(§2) The investigations on the inhibition of the recombinant TASK-1 and TASK-3 channels were conducted using stably transfected CHO cells. The compounds according to the invention were tested in this case by application of 40 mM potassium chloride in the presence of a voltage-sensitive dye according to the method described in detail in the following references [Whiteaker et al., Validation of FLIPR membrane potential dye for high-throughput screening of potassium channel modulators, J. Biomol. Screen. 6 (5), 305-312 (2001); Molecular Devices FLIPR Application Note: Measuring membrane potential using the FLIPR® membrane potential assay kit on Fluorometric Imaging Plate Reader (FLIPR®) systems, http://www.moleculardevices.com/reagents-supplies/assay-kits/ion-channels/flipr-membrane-potential-assay-kits]. The activity of the test substances was determined as their ability to inhibit a depolarization induced in the recombinant cells by 40 mM potassium chloride. The concentration which can block half of this depolarization is referred to as IC50.

human TASK-3 = human TASK-3 (Homo sapiens (Human), UniProt Q9NPC2); assay: Inhibition of recombinant TASK-3 in stably transfected CHO cells (voltage-sensitive dye, KCl depolarization); type: cell-based; details: depolarization by 40 mM potassium chloride
Protocol: as §1, §2

Chain of human TASK-3 (Q9NPC2 whole entry): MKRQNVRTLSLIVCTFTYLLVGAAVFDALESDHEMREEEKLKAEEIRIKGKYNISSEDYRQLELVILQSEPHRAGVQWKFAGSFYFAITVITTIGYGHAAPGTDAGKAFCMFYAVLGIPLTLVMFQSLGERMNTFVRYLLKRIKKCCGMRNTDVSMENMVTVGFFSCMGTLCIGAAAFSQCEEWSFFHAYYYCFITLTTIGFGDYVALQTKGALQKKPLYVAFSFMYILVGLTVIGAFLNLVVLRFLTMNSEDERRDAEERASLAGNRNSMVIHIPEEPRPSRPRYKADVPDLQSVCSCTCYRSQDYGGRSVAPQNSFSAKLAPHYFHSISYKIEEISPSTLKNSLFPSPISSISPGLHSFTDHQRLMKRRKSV
Chain of human TASK-1 (O14649 whole entry): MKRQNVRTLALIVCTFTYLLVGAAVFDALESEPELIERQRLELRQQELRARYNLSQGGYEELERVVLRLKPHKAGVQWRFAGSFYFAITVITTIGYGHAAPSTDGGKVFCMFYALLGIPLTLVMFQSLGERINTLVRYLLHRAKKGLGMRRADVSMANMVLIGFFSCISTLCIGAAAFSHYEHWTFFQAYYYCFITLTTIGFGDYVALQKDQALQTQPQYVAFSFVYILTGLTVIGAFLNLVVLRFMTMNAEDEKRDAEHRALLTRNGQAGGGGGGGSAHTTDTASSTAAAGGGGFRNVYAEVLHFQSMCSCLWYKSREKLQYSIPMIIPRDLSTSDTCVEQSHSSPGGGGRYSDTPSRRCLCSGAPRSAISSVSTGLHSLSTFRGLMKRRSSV

Row | Compound | IC50 (human TASK-1) [nM] | IC50 (human TASK-3) [nM]
1 | CC(C)(C)OC(=O)N1C2CCC1CN(Cc1c(-c3ccc(Br)cc3)nc3ncccn13)C2 [Example 12] | 220 | 13
2 | O=C(C1CCCC1)N1C2COCC1CN(Cc1c(-c3ccc(Cl)cc3)nc3ncccn13)C2 [Example 17, (7-{[2-(4-Chlorophenyl)imidazo[1,2-a]pyrimidin-3-yl]methyl}-3-oxa-7,9-diazabicyclo[3.3.1]non-9-yl)(cyclopentyl)methanone] | 1200 | 33
3 | COc1ccc(Cl)c(C(=O)N2CC3CCC2CN3Cc2c(-c3ccc(Cl)cc3)nc3ncccn23)n1 (stereo not drawn) [Example 45] | 1800 | 120
4 | O=C(c1cccc(OC(F)F)n1)N1C2CCC1CN(Cc1c(-c3ccc(C4CC4)cc3)nc3ncccn13)C2 [Example 138, (3-{[2-(4-cyclopropylphenyl)imidazo[1,2-a]pyrimidin-3-yl]methyl}-3,8-diazabicyclo[3.2.1]octan-8-yl)[6-(difluoromethoxy)pyridin-2-yl]methanone] | 3200 | 290
5 | CC(C)(C)OC(=O)N1CC2CCC1CN2Cc1c(-c2ccc(Br)cc2)nc2ncccn12 (stereo not drawn) [Example 11] | 2500 | 16
6 | CC(C)(C)OC(=O)N1C2COCC1CN(Cc1c(-c3ccc(Cl)cc3)nc3ncccn13)C2 [Example 1, tert-Butyl 7-{[2-(4-chlorophenyl)imidazo[1,2-a]pyrimidin-3-yl]methyl}-3-oxa-7,9-diazabicyclo[3.3.1]nonane-9-carboxylate] | 1700 | 400
7 | O=C(c1ncoc1C1CC1)N1C2CCC1CN(Cc1c(-c3ccc(Cl)cc3)nc3ncccn13)C2 [Example 53] | 620 | 19
8 | O=C(c1ccccc1F)N1C2COCC1CN(Cc1c(-c3ccc(Cl)cc3)nc3ncccn13)C2 [Example 30] | 3500 | 85
9 | CC(C)c1ccc(-c2nc3ncccn3c2CN2CC3CCC(C2)N3C(=O)c2ccccc2F)cc1 [Example 64] | 1100 | 8.4
10 | CC(C)(C)OC(=O)N1CC2CCC1CN2Cc1c(-c2ccc(Cl)cc2)nc2ncccn12 (single isomer, unassigned) [Example 5, tert-Butyl 5-{[2-(4-chlorophenyl)imidazo[1,2-a]pyrimidin-3-yl]methyl}-2,5-diazabicyclo[2.2.2]octane-2-carboxylate] | 17000 | 1300
11 | COc1ccc(C)c(C(=O)N2CC3CCC2CN3Cc2c(-c3ccc(C(C)C)cc3)nc3ncccn23)n1 (stereo not drawn) [Example 77] | 720 | 4.9
12 | CCOC(=O)N1C2CCC1CN(Cc1c(-c3ccc(Cl)cc3)nc3ncccn13)C2 [Example 124, ethyl 3-{[2-(4-chlorophenyl)imidazo[1,2-a]pyrimidin-3-yl]methyl}-3,8-diazabicyclo[3.2.1]octane-8-carboxylate] | 790 | 17
13 | O=C(OC1CCCC1)N1C2CCC1CN(Cc1c(-c3ccc(Cl)cc3)nc3ncccn13)C2 [Example 125, cyclopentyl 3-{[2-(4-chlorophenyl)imidazo[1,2-a]pyrimidin-3-yl]methyl}-3,8-diazabicyclo[3.2.1]octane-8-carboxylate] | 230 | 27
14 | COc1ccc(F)c(C(=O)N2CC3CCC2CN3Cc2c(-c3ccc(Br)cc3)nc3ncccn23)n1 (stereo not drawn) [Example 81] | 820 | 21
15 | O=C(c1cscn1)N1C2CCC1CN(Cc1c(-c3ccc(Cl)cc3)nc3ncccn13)C2 [Example 61] | 3000 | 640
16 | O=C(N1CCCC1)N1C2CCC1CN(Cc1c(-c3ccc(Cl)cc3)nc3ncccn13)C2 [Example 113, (3-{[2-(4-chlorophenyl)imidazo[1,2-a]pyrimidin-3-yl]methyl}-3,8-diazabicyclo[3.2.1]oct-8-yl)(pyrrolidin-1-yl)methanone] | 1100 | 62
17 | O=C(c1coc(C2CC2)n1)N1C2CCC1CN(Cc1c(-c3ccc(Cl)cc3)nc3ncccn13)C2 [Example 47] | 2800 | 110
18 | Cc1ccccc1CNC(=O)N1C2CCC1CN(Cc1c(-c3ccc(Cl)cc3)nc3ncccn13)C2 [Example 107, 3-{[2-(4-chlorophenyl)imidazo[1,2-a]pyrimidin-3-yl]methyl}-N-(2-methylbenzyl)-3,8-diazabicyclo[3.2.1]octane-8-carboxamide] | 30000 | 750

Row | Compound | IC50 (human TASK-1) [nM] | IC50 (human TASK-3) [nM]
19 | CC(C)N(C(=O)N1C2CCC1CN(Cc1c(-c3ccc(Cl)cc3)nc3ncccn13)C2)c1ccc(Cl)cc1 [Example 118, N-(4-chlorophenyl)-3-{[2-(4-chlorophenyl)imidazo[1,2-a]pyrimidin-3-yl]methyl}-N-isopropyl-3,8-diazabicyclo[3.2.1]octane-8-carboxamide] | 19000 | 220
20 | O=C(c1ncoc1C1CC1)N1C2CCC1CN(Cc1c(-c3ccc(C4CC4)cc3)nc3ncccn13)C2 [Example 139, (5-cyclopropyl-1,3-oxazol-4-yl)(3-{[2-(4-cyclopropylphenyl)imidazo[1,2-a]pyrimidin-3-yl]methyl}-3,8-diazabicyclo[3.2.1]octan-8-yl)methanone] | 4500 | 470
21 | COc1ccc(F)c(C(=O)N2CC3CCC2CN3Cc2c(-c3ccc(Cl)cc3)nc3ncccn23)n1 (single isomer, unassigned) [Example 24, (5-{[2-(4-Chlorophenyl)imidazo[1,2-a]pyrimidin-3-yl]methyl}-2,5-diazabicyclo[2.2.2]oct-2-yl)(3-fluoro-6-methoxypyridin-2-yl)methanone] | 410 | 102
22 | O=C(C1CCCC1)N1C2CCC1CN(Cc1c(-c3ccc(Cl)cc3)nc3ncccn13)C2 [Example 34] | 76 | 29
23 | CCc1ccccc1NC(=O)N1C2CCC1CN(Cc1c(-c3ccc(Cl)cc3)nc3ncccn13)C2 [Example 95, 3-{[2-(4-chlorophenyl)imidazo[1,2-a]pyrimidin-3-yl]methyl}-N-(2-ethylphenyl)-3,8-diazabicyclo[3.2.1]octane-8-carboxamide] | 3000 | 41
24 | O=C(Nc1cccc(Cl)c1Cl)N1C2CCC1CN(Cc1c(-c3ccc(Cl)cc3)nc3ncccn13)C2 [Example 94, 3-{[2-(4-chlorophenyl)imidazo[1,2-a]pyrimidin-3-yl]methyl}-N-(2,3-dichlorophenyl)-3,8-diazabicyclo[3.2.1]octane-8-carboxamide] | 30000 | 160
25 | CC(C)c1ocnc1C(=O)N1C2CCC1CN(Cc1c(-c3ccc(Cl)cc3)nc3ncccn13)C2 [Example 49] | 260 | 12
26 | O=C(C1CCCC1)N1CC2CCC1CN2Cc1c(-c2ccc(Cl)cc2)nc2ncccn12 (stereo not drawn) [Example 37] | 1500 | 140
27 | COc1cccc(C(=O)N2CC3CCC2CN3Cc2c(-c3ccc(C(C)C)cc3)nc3ncccn23)n1 (stereo not drawn) [Example 74] | 3400 | 61
28 | COc1cccc(C(=O)N2CC3CCC2CN3Cc2c(-c3ccc(Cl)cc3)nc3ncccn23)n1 (stereo not drawn) [Example 40] | 5700 | 210
29 | Cc1ccc(C)c(NC(=O)N2C3CCC2CN(Cc2c(-c4ccc(Cl)cc4)nc4ncccn24)C3)c1 [Example 99, 3-{[2-(4-chlorophenyl)imidazo[1,2-a]pyrimidin-3-yl]methyl}-N-(2,5-dimethylphenyl)-3,8-diazabicyclo[3.2.1]octane-8-carboxamide] | 30000 | 750
30 | COc1ccc(F)c(C(=O)N2C3COCC2CN(Cc2c(-c4ccc(Cl)cc4)nc4ncccn24)C3)n1 [Example 15, (7-{[2-(4-Chlorophenyl)imidazo[1,2-a]pyrimidin-3-yl]methyl}-3-oxa-7,9-diazabicyclo[3.3.1]non-9-yl)(3-fluoro-6-methoxypyridin-2-yl)methanone] | 1100 | 19
31 | COc1ccc(C)c(C(=O)N2CC3CCC2CN3Cc2c(-c3ccc(C(C)C)cc3)nc3ncccn23)n1 (stereo not drawn) [Example 78] | 3800 | 24
32 | CC(C)(C)OC(=O)N1C2CCC1CN(Cc1c(-c3ccc(C4CC4)cc3)nc3ncccn13)C2 [Example 132, tert-Butyl 3-{[2-(4-cyclopropylphenyl)imidazo[1,2-a]pyrimidin-3-yl]methyl}-3,8-diazabicyclo[3.2.1]octane-8-carboxylate] | 1700 | 410
33 | CC(C)c1ccc(-c2nc3ncccn3c2CN2CC3CCC(C2)N3C(=O)OC(C)(C)C)cc1 [Example 130, tert-Butyl 3-{[2-(4-isopropylphenyl)imidazo[1,2-a]pyrimidin-3-yl]methyl}-3,8-diazabicyclo[3.2.1]octane-8-carboxylate] | 1700 | 210
34 | COc1cccc(C(=O)N2C3CCC2CN(Cc2c(-c4ccc(Cl)cc4)nc4ncccn24)C3)n1 [Example 20, (3-{[2-(4-Chlorophenyl)imidazo[1,2-a]pyrimidin-3-yl]methyl}-3,8-diazabicyclo[3.2.1]oct-8-yl)(6-methoxypyridin-2-yl)methanone] | 160 | 38
35 | O=C(c1ccccc1F)N1C2CCC1CN(Cc1c(-c3ccc(Br)cc3)nc3ncccn13)C2 [Example 83] | 250 | 14
36 | CCc1cccc(C)c1NC(=O)N1C2CCC1CN(Cc1c(-c3ccc(Cl)cc3)nc3ncccn13)C2 [Example 98, 3-{[2-(4-chlorophenyl)imidazo[1,2-a]pyrimidin-3-yl]methyl}-N-(2-ethyl-6-methylphenyl)-3,8-diazabicyclo[3.2.1]octane-8-carboxamide] | 9000 | 160
